These results are taken from US20050070570A1, “Novel potassium channels modulators” (4SC AG, priority 2003, published 2005).

Sequence of BK channels (CHO cells permanently transfected with cloned hSlo, α-hSlo and β-bSlo) (Q12791 whole entry): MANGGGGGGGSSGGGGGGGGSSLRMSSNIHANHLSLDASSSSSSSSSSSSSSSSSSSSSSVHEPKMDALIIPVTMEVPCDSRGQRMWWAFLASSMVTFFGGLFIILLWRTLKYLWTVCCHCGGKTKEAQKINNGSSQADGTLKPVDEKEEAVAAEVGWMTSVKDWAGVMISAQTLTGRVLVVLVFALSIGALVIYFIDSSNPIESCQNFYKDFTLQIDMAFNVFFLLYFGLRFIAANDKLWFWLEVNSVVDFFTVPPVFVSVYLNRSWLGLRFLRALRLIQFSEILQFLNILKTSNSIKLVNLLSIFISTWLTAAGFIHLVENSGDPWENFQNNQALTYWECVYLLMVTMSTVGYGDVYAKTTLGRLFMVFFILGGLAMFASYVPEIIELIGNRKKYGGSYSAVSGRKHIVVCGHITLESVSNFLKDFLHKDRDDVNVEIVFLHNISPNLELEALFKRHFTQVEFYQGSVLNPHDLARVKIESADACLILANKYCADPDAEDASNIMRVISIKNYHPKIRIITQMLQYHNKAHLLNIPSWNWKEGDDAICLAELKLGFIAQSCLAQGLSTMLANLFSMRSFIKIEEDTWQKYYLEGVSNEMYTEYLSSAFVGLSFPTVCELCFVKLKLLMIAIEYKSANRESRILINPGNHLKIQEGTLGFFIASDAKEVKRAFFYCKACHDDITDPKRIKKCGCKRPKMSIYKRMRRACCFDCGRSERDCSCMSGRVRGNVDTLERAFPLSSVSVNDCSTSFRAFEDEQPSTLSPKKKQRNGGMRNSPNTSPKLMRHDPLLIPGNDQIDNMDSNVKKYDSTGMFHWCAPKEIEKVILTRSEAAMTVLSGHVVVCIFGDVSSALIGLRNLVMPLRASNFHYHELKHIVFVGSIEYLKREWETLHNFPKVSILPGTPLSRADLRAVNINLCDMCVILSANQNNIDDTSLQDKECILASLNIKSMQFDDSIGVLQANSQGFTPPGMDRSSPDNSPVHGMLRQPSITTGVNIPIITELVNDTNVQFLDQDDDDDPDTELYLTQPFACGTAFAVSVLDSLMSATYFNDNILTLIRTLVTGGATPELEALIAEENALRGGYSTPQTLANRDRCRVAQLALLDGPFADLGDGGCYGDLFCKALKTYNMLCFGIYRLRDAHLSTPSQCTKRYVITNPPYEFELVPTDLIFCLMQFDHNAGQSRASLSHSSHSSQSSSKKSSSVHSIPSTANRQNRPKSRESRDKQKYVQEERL
Sequence of BK channels (CHO cells permanently transfected with cloned hSlo, α-hSlo and β-bSlo) (Q28067 whole entry partner): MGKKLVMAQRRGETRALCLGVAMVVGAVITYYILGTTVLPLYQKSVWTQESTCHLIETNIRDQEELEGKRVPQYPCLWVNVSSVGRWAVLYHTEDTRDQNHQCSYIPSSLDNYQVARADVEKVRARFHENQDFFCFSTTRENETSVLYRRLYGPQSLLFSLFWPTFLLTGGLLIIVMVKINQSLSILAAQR

The test has as its target BK channels (CHO cells permanently transfected with cloned hSlo, α-hSlo and β-bSlo) (Homo sapiens, UniProt Q12791). Briefly: Em-Assay: fluorescence membrane potential assay with voltage sensitive dye DiBAC(4)3. It is filed as cell-based. The conditions noted are these: ratio of the compound effect (50 μM) compared to the maximal effect of NS004 (25 or 50 μM). An excerpt: The large conductance, voltage-dependent and Ca^2+-activated potassium channel BK is a potassium selective ion channel and belongs to the subfamily of KCa channels. Four BK alpha-subunits form a functional channel that can be regulated by intracellular Ca^2+ concentration, membrane voltage, and other mechanisms like phosphorylation states or beta subunits. To test the biological activity of the compounds, we applied two different techniques, a fluorescence based assay using a voltage sensitive dye (Em-Assay) as well as exploiting electrophysiological methods.
CHO cells permanently transfected with cloned hSlo (α-hSlo and β-bSlo), yielding typical BK potassium currents (Zhou et al., Pflügers Arch., 436: 725-734 (1998), were used for the evaluation of compound activity. Activation or inhibition of BK channels in these cells leads to a change of the electrochemical gradient causing a hyperpolarized or depolarised membrane potential, respectively.
To determine changes in the membrane potential of the cells we used the voltage sensitive dye DiBaC(4)3 (Molecular Probes) in a kinetic assay system using a fluorescent plate reader (Manning and Sontheimer, J. Neurosci. Meth., 91: 73-81 (1999). The anionic bis-oxonol DiBAC(4)3 is a voltage sensitive dye which partitions from the extracellular environment into the cell where it reversibly binds to intracellular proteins, a kinetic process depending on the membrane potential of the cell. At depolarised potentials (i.e. at a reduced K^+ efflux due to blocked K^+ channels) the dye accumulates in the cell leading to an increased fluorescence intensity, due to its increased fluorescence if bound to cellular proteins. At hyperpolarized potentials (i.e. at an increased K^+ efflux due to the opening of K^+ channels), the dye partitions out of the cell causing a decreased fluorescence intensity.
hslo transfected CHO cells where maintained in DMEM supplemented with 10% FCS, 250 μg/ml Geneticin, 100 μg/m Hygromycin, 1×HT-Supplement, and 1×Non-essential Amino Acids and cultured in a humidified CO2 incubator. After trypsination, cells where plated with a density of 5×10^4 cells per well on a clear 96-well plate and incubated for 24 h. Cells where washed once with PBS, once with PBS containing 20 mM HEPES (adjusted to pH 7.4 with NaOH) and 2 μM DiBAC(4)3 (DPBS-DiBAC solution). 180 μl of the dPBS-DiBAC solution was then added to the cells and the plate incubated for 30-60 min at 37° C. During this time the dye could partition into the cells and reach a certain steady-state distribution, depending on the resting membrane potential. Test and reference compounds were stored as DMSO stock solutions and diluted in dPBS-DiBAC solution to the desired concentration.
Fluorescence intensity (Ex.: 485 nm/Em.: 520 nm) of each well was detected in the plate reader (Fluostar, BMG) every 60 seconds. After recording the baseline fluorescence for 7 minutes, 20 μl test- and reference compounds were added and the fluorescence intensity was detected for additional 15 minutes. Background was subtracted, data values were normalized and expressed as a change in fluorescence intensity against time. The change in fluorescence intensity caused by the test compounds was evaluated, compared to the effect of the reference compound NS004, and the ratio was determined (see Table I).
For `COc1ccc(C(=O)N2CCc3cc(OC)cc(OC)c3C2c2ccc(-c3ccccc3)cc2)cc1` (stereo not drawn) [Compound 1, (1-Biphenyl-4-yl-6,8-dimethoxy-3,4-dihydro-1H-isoquinolin-2-yl)-(4-methoxy-phenyl)-methanone], the Em effect entry is “+ (0-1=+)”.

`COc1cc2c(c(OC)c1)C(c1ccc(-c3ccccc3)cc1)N(C(=O)c1ccc([N+](=O)[O-])cc1)CC2` (stereo not drawn) [Compound 2, (1-Biphenyl-4-yl-6,8-dimethoxy-3,4-dihydro-1H-isoquinolin-2-yl)-(4-nitro-phenyl)-methanone]: the Em effect result is “+ (0-1=+)”.

For `COc1cc2c(c(OC)c1)C(c1ccc(-c3ccccc3)cc1)N(C(=O)c1cccc(Br)c1)CC2` (stereo not drawn) [Compound 3, (1-Biphenyl-4-yl-6,8-dimethoxy-3,4-dihydro-1H-isoquinolin-2-yl)-(3-bromo-phenyl) methanone], the Em effect result is on record as “+ (0-1=+)”. Regarding `COc1cc2c(c(OC)c1)C(c1ccc(-c3ccccc3)cc1)N(C(=O)c1ccc(C(F)(F)F)cc1)CC2` (stereo not drawn) [Compound 4, (1-Biphenyl-4-yl-6,8-dimethoxy-3,4-dihydro-1H-isoquinolin-2-yl)-(4-trifluoromethylphenyl)-methanone], the Em effect entry is “+ (0-1=+)”. Turning to `COc1cc2c(c(OC)c1)C(c1ccc(-c3ccccc3)cc1)N(C(=O)c1ccc(C(F)(F)F)cc1F)CC2` (stereo not drawn) [Compound 5, (1-Biphenyl-4-yl-6,8-dimethoxy-3,4-dihydro-1H-isoquinolin-2-yl)-(2-fluoro-4-trifluoromethyl-phenyl)-methanone], the Em effect result was “+ (0-1=+)”. As to `COc1cc2c(c(OC)c1)C(c1ccc(-c3ccccc3)cc1)N(C(=O)c1ccc(C(C)(C)C)cc1)CC2` (stereo not drawn) [Compound 6, (1-Biphenyl-4-yl-6,8-dimethoxy-3,4-dihydro-1H-isoquinolin-2-yl)-(4-tert-butyl-phenyl)-methanone], the Em effect entry is reported as “+ (0-1=+)”. Next, `COc1cc2c(c(OC)c1)C(c1ccc(-c3ccccc3)cc1)N(C(=O)c1ccc(OC(F)(F)F)cc1)CC2` (stereo not drawn) [Compound 7, (1-Biphenyl-4-yl-6,8-dimethoxy-3,4-dihydro-1H-isoquinolin-2-yl)-(4-trifluoromethoxy-phenyl)-methanone]: “+ (0-1=+)”. In the case of `COc1cc2c(c(OC)c1)C(c1ccc(-c3ccccc3)cc1)N(C(=O)c1cc(C(F)(F)F)cc(C(F)(F)F)c1)CC2` (stereo not drawn) [Compound 8, (1-Biphenyl-4-yl-6,8-dimethoxy-3,4-dihydro-1H-isoquinolin-2-yl)-(3,5-bis-trifluoromethyl-phenyl)methanone] it was “+ (0-1=+)”; in that of `COc1cccc(C(=O)N2CCc3cc(OC)cc(OC)c3C2c2ccc(O)cc2)c1` (stereo not drawn) [Compound 9, [1-(4-Hydroxy-phenyl)-6,8-dimethoxy-3,4-dihydro-1H-isoquinolin-2-yl]-(3-methoxy-phenyl)-methanone], “+ (0-1=+)”; in that of `COc1cc2c(c(OC)c1)C(c1ccc(O)cc1)N(C(=O)CCCCBr)CC2` (stereo not drawn) [Compound 10, 5-Bromo-1-[1-(4-hydroxy-phenyl)-6,8-dimethoxy-3,4-dihydro-1H-isoquinolin-2-yl]-pentan-1-one], “+ (0-1=+)”. Consider `COc1cc2c(c(OC)c1)C(c1ccc(O)cc1)N(C(=O)c1cccc(OC(F)(F)F)c1)CC2` (stereo not drawn) [Compound 11, [1-(4-Hydroxy-phenyl)-6,8-dimethoxy-3,4-dihydro-1H-isoquinolin-2-yl]-(3-trifluoromethoxy-phenyl)-metanone], for which the Em effect entry is given as “+ (0-1=+)”. Turning to `COc1cc2c(c(OC)c1)C(c1ccc(O)cc1)N(C(=O)CCc1ccccc1)CC2` (stereo not drawn) [Compound 12], the Em effect entry is “+ (0-1=+)”. For `COc1cc2c(c(OC)c1)C(c1ccc(O)cc1)N(C(=O)c1ccccc1OC(F)(F)F)CC2` (stereo not drawn) [Compound 13], the Em effect result is on record as “+ (0-1=+)”. Next, `COc1cc2c(c(OC)c1)C(c1ccc(O)cc1)N(C(=O)c1ccc(C(C)(C)C)cc1)CC2` (stereo not drawn) [Compound 14, (4-tert-Butyl-phenyl)-[1-(4-hydroxy-phenyl)-6,8-dimethoxy-3,4-dihydro-1-H-isoquinolin-2-yl]-methanone]: “+ (0-1=+)”. Next, `COc1cc2c(c(OC)c1)C(c1ccc(O)cc1)N(C(=O)c1ccc(-c3ccccc3)cc1)CC2` (stereo not drawn) [Compound 15, Biphenyl-4-yl-[1-(4-hydroxy-phenyl)-6,8-dimethoxy-3,4-dihydro-1H-isoquinolin-2-yl]-methanone]: “+ (0-1=+)”; `COc1cc2c(c(OC)c1)C(c1ccc(O)cc1)N(C(=O)c1cnc3ccccc3n1)CC2` (stereo not drawn) [Compound 16, [1-(4-Hydroxy-phenyl)-6,8-dimethoxy-3,4-dihydro-1H-isoquinolin-2-yl]-quinoxalin-2-yl-methanone]: “+ (0-1=+)”.

As to `COc1cc2c(c(OC)c1)C(c1ccc(O)cc1)N(C(=O)c1cccc3ccccc13)CC2` (stereo not drawn) [Compound 17, [1-(4-Hydroxy-phenyl)-6,8-dimethoxy-3,4-dihydro-1H-isoquinolin-2-yl]-naphthalen-1-yl-methanone], the Em effect entry is “+ (0-1=+)”.

Consider `COc1cc2c(c(OC)c1)C(c1ccc(O)cc1)N(C(=O)c1cccc(C(F)(F)F)c1)CC2` (stereo not drawn) [Compound 18, [1-(4-Hydroxy-phenyl)-6,8-dimethoxy-3,4-dihydro-1H-isoquinolin-2-yl]-(3-trifluoromethyl-phenyl)-methanone], for which the Em effect entry is listed as “+ (0-1=+)”. In the case of `COc1cc2c(c(OC)c1)C(c1ccc(O)cc1)N(C(=O)C1CCCC1)CC2` (stereo not drawn) [Compound 19, Cyclopentyl-[1-(4-hydroxy-phenyl)-6,8-dimethoxy-3,4-dihydro-1H-isoquinolin-2-yl]-methanone] it was “+ (0-1=+)”; in that of `COc1cc2c(c(OC)c1)C(c1ccc(O)cc1)N(C(=O)c1ccc(C(F)(F)F)cc1)CC2` (stereo not drawn) [Compound 20, [1-(4-Hydroxy-phenyl)-6,8-dimethoxy-3,4-dihydro-1H-isoquinolin-2-yl]-(4-trifluoromethyl-phenyl)methanone], “+ (0-1=+)”; in that of `COc1cc2c(c(OC)c1)C(c1ccc(O)cc1)N(C(=O)CCC1CCCC1)CC2` (stereo not drawn) [Compound 21, 3-Cyclopentyl-1-[1-(4-hydroxy-phenyl)-6,8-dimethoxy-3,4-dihydro-1H-isoquinolin-2-yl]-propan-1-one], “+++ (>1.5=+++)”. For `COc1ccc(C(=O)N2CCc3cc(OC)cc(OC)c3C2c2ccc(O)cc2)cc1` (stereo not drawn) [Compound 22, [1-(4-Hydroxy-phenyl)-6,8-dimethoxy-3,4-dihydro-1H-isoquinolin-2-yl]-(4-methoxy-phenyl)-methanone], the Em effect entry was “+ (0-1=+)”. On to `COc1cc2c(c(OC)c1)C(c1ccc(O)cc1)N(C(=O)CCC1CCCCC1)CC2` (stereo not drawn) [Compound 23, 3-Cyclohexyl-1-[1-(4-hydroxy-phenyl)-6,8-dimethoxy-3,4-dihydro-1H-isoquinolin-2-yl]-propan-1-one], for which the Em effect entry is “+ (0-1=+)”. For `COc1cc2c(c(OC)c1)C(c1ccc(O)cc1)N(C(=O)c1sc3ccccc3c1Cl)CC2` (stereo not drawn) [Compound 24, (3-Chloro-benzo[b]thiophen-2-yl)-[1-(4-hydroxy-phenyl)-6,8-dimethoxy-3,4-dihydro-1H-iso-quinolin-2-yl]-methanone], the Em effect entry is on record as “+ (0-1=+)”. In the case of `COc1cc2c(c(OC)c1)C(c1ccc(O)cc1)N(C(=O)c1cccs1)CC2` (stereo not drawn) [Compound 25, [1-(4-Hydroxy-phenyl)-6,8-dimethoxy-3,4-dihydro-1H-iso-quinolin-2-yl]-thiophen-2-yl-methanone], the Em effect entry was “+ (0-1=+)”. For `COc1cc2c(c(OC)c1)C(c1ccc(O)cc1)N(C(=O)c1ccc3c(c1)OCO3)CC2` (stereo not drawn) [Compound 26, Benzo[1,3]dioxol-5-yl-[1-(4-hydroxy-phenyl)-6,8-dimethoxy-3,4-dihydro-1H-isoquinolin-2-yl]-methanone], the Em effect entry is given as “+ (0-1=+)”. Turning to `COc1cc2c(c(OC)c1)C(c1ccc(O)cc1)N(C(=O)c1ccno1)CC2` (stereo not drawn) [Compound 27, [1-(4-Hydroxy-phenyl)-6,8-dimethoxy-3,4-dihydro-1H-isoquinolin-2-yl]-isoxazol-5-yl-methanone], the Em effect result is reported as “+ (0-1=+)”.
